Experimental data published in patent US12344599B2, “Prodigiosin analogs and methods of use” (Institute For Cancer Research, priority 2016, dated 2025).
“Also recorded” adds a separate entry of the source.

Assays:
[1] = system: PUMA and DR5 in HT29 and HCT116 p53−/− cell lines; experiment: Western blot of PUMA and DR5, comparison with regorafenib; type: cell-based, human; conditions: 4 μM, 24-hour time point
Procedure: After treatment, protein lysates were collected for Western blot analysis. A total of […] of protein was used for SDS-PAGE. After primary and secondary antibody incubations, the signal was detected by a chemiluminescence detection kit, imaged by Syngene (Imgen Technologies). Antibodies for PUMA (for IHC), p53 (Santa Cruz Biotechnology), caspase 8, cleaved caspase 8, caspase 9, caspase 3, cleavage PARP, eIF2α, p-eIF2α (Ser51), CHOP, ATF4, DR5, FOXO3a, p-FOXO3a (Ser253), NF-κB p65, p-NF-κB p65 (Ser536), c-Jun, p-c-Jun (Ser63), JNK, p-JNK (Thr183/Tyr185), PUMA (for WB), c-Myc, phosphor-S62-cMyc (Cell Signaling Technology), Noxa, p21 (Calbiochem), p73 (Bethyl laboratories Inc), Ran (BD Biosciences), […] (Sigma).
Regorafenib is an FDA-approved drug for treatment of metastatic colorectal cancer, advanced gastrointestinal stromal tumors and hepatocellular carcinoma. Regorafenib inhibits ERK and leads to the induction of PUMA through the GSK3β/NF-κB axis and induces PUMA-mediated apoptosis in colon cancer cell lines (Chen et al., Clin Cancer Res, 2014, 20, 3472-3484). PG3-Oc was compared with regorafenib in the induction of PUMA and DR5. Regorafenib (40 μM and 24 hours treatment) was used as a control, as previously reported (Chen et al., Clin Cancer Res, 2014, 20, 3472-3484).

[2] = system: PANC-1; experiment: CellTiterGlo cell viability assay, PANC-1; type: cell-based; conditions: Homo sapiens; PANC-1, pancreatic cancer, p53 R273H, 72 hours
Procedure: (§1) • 1) Cell lines: HT29, SW480, DLD-1, HCT116, and p53-null HCT116 cells, H1975, MDA-MD-231, U251, FaDu, CAL-27, PANC-1, Aspc-1, and MRC5 were obtained from the ATCC and cultured as recommended. Cells were regularly authenticated by bioluminescence, growth, and morphologic observation. The cells were routinely examined for Mycoplasma and all cell lines underwent STR authentication. • 2) Western blotting: After treatment, protein lysates were collected for Western blot analysis. 15 μg of protein was used for SDS-PAGE. After primary and secondary antibody incubations, the signal was detected by chemiluminescent detection kit, imaged by Syngene (Imgen Technologies). […] The cell viability was assessed by CellTiterGlo bioluminescent cell proliferation assay (Promega), following the manufacturer's protocol. Bioluminescence imaging was measured using the IVIS imager. Percentage of cell viability (mean±SEM) at each dose was calculated against the respective DMSO control. The IC50 values were determined from the sigmoidal dose-response curves using GraphPad Prims4. • 4) Caspase activity assay: Cells were seeded in 96-well plate (1×10^4 cells/well). […] The caspase 3/7 activity was assessed by Caspase-Glo® 3/7 Assay kit (Promega), following the manufacturer's protocol. Bioluminescence imaging was measured using the IVIS imager. […]

[3] = system: human cancer cells with mutant p53; experiment: CellTiterGlo cell viability assay, panel of cancer cell lines; type: cell-based
Procedure: as §1

[4] = system: CCD 841 Con; experiment: CellTiterGlo cell viability assay, CCD 841 Con normal colon cells; type: cell-based; conditions: Homo sapiens, non-transformed colorectal epithelial cells, p53 WT, 72 hours
Procedure: Cells were seeded in 96-well plates (6×10^3 cells/well). Cells were treated with different concentrations of compounds or dimethyl sulfoxide (DMSO) as a control for 72 hours. The cell viability was assessed by CellTiterGlo bioluminescent cell proliferation assay (Promega), following the manufacturer's protocol. Bioluminescence imaging was measured using the IVIS imager. Percentage of cell viability (mean±SEM) at each dose was calculated against the respective DMSO control. The IC50 values were determined from the sigmoidal dose-response curves using GraphPad Prism.

[5] = system: caspase 3/7; experiment: Caspase-Glo 3/7 caspase activity assay; type: cell-based, human; conditions: mutant p53 and p53-null cancer cells, 24 hours
Procedure: as §1

CCCCCCCCOC(=O)CCc1c(C)[nH]c(/C=C2\N=C(c3ccc[nH]3)C=C2OC)c1C [PG3-Oc, Octyl (Z)-3-(5-((4′-methoxy-1H,5′H-[2,2′-bipyrrol]-5′-ylidene)methyl)-2,4-dimethyl-1H-pyrrol-3-yl)propanoate]
level of PUMA and DR5 induced compared to 40 μM regorafenib [1]: much higher level of PUMA and DR5 | IC50 [2]: 136 nM | potency for inhibition of cancer cell growth ([3]; HCT116 and SW480, 72 hours, comparison with prodigiosin and obatoclax): comparable with prodigiosin (P) and obatoclax (Ob); also recorded: comparable to prodigiosin and obatoclax | IC50 values ([3]; panel of human cancer cell lines with mutant p53, 72 hours): within the nano-molar range | IC50 [4]: 375 nM | increase in caspase 3/7 activity as compared to untreated cells [5]: 2 fold
